pEC50: −log10 of the molar value.
These compounds were tested against Cyclin-dependent kinase 5 (Rattus norvegicus, UniProt Q03114) (assay: Inhibition of rat fetal brain CDK5 assessed as phosphorylated histone H1 levels by immuno-precipitation).
Assay type: tissue-based

Sequence of Cyclin-dependent kinase 5 (Q03114 whole entry): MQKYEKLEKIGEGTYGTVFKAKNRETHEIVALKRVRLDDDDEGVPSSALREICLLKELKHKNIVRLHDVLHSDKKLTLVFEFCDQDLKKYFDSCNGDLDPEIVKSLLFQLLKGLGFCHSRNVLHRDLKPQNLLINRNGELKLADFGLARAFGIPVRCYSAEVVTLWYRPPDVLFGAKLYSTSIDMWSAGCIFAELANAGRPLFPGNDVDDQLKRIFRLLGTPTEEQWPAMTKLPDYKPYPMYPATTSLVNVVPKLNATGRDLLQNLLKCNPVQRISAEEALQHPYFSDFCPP

Row | Structure (SMILES) | pEC50
1 | COc1cc2oc(-c3ccccc3)cc(=O)c2c(OC)c1O | < 3.60
2 | O=c1cc(-c2ccc(O)cc2)oc2cc(O)cc(O)c12 [APIGENIN] | < 3.60
3 | O=c1c(O)c(-c2ccc(O)cc2)oc2cc(O)cc(O)c12 [KAEMPFEROL] | 4.18
4 | COc1cc(-c2oc3c(OC)c(OC)c(OC)c(O)c3c(=O)c2OC)ccc1O | < 4.60
5 | COc1c(O)cc2oc(-c3ccc(O)c(O)c3)cc(=O)c2c1O [EUPAFOLIN] | 4.40
6 | O=c1c(O)c(-c2cc(O)c(O)c(O)c2)oc2cc(O)cc(O)c12 [MYRICETIN] | 4.15
7 | COc1c(O)cc2oc(-c3ccc(O)cc3)cc(=O)c2c1O [HISPIDULIN] | 4.72
8 | O=c1cc(-c2ccc(O)c(O)c2)oc2cc(O)cc(O)c12 [LUTEOLIN] | < 3.60

— ChEMBL document CHEMBL1146503, “Effects of natural flavones and flavonols on the kinase activity of Cdk5” (J Nat Prod, 2004)
